Results taken from US10092526B2, “Compositions and methods for treating respiratory injury or disease” (University of Pittsburgh—Of the Commonwealth System of …, priority 2013, dated 2018).
Converted amounts (≈) assume the structure as drawn. Like-named read-outs stand apart in the source and are kept apart here.

Columns and labels:
[1] = system: TNFα cytokine release; experiment: LPS-induced TNFα cytokine release in PBMC (ELISA); format: cell-based; settings: LPS 50 ng/ml, 16 hours, TNFα release by ELISA
Procedure: Peripheral blood mononuclear cells (PBMC) (0.2 ml at 0.3×10^6/ml) were treated with lipopolysaccharide (LPS) (50 ng/ml) for 16 hours concurrently with each compound tested at different concentrations. TNFα cytokine release was monitored by ELISA. These concentrations were used to calculate the IC50.

[2] = U937 monocyte cytotoxicity, Trypan blue staining; format: cell-based; settings: human
Procedure: (§1) U937 monocytes (0.2 ml at 0.3 x 10^6/ml) were treated with each compound at different concentrations for 16 hours. The cells were then stained with Trypan blue to identify dead cells, and to calculate the LC50. Combined values were used to generate therapeutic indexes (TI)=LC50/IC50.

[3] = system: U937 monocytes; experiment: U937 monocyte cytotoxicity, Trypan blue staining; format: cell-based
Procedure: as §1

[4] = system: IL1β; experiment: IC50IL1β measurements (FIG. 1); format: cell-based
[5] = system: Pseudomonas aeruginosa strain PA103; experiment: Pseudomonas induced pneumonia, Compound 014 (Example 5); format: in vivo, mice; settings: 30 μg or 150 μg IP
Procedure: Mice were administered either 30 μg or 150 μg of Compound 014 by IP injection, and these mice were then challenged with Pseudomonas aeruginosa strain PA103 (2.5×10^4 CFU/mouse, i.t.) for 18 hours. Mice were monitored on a FlexiVent to measure lung mechanics throughout the procedure. The mice were then sacrificed and lungs were lavaged with saline, harvested, and then homogenized. Lavage cells were processed with cytosin and stained with May-Grunwald and Geimsa, and H&E staining was performed on lung samples. Lavage protein, cell count, and cytokine secretion were measured. (n=4 mice/group, *P<0.05 versus PA103 versus Vehicle)

[6] = system: cigarette smoke induced chronic lung inflammation; experiment: Smoke induced chronic lung inflammation (Example 6); format: in vivo, mice; settings: cigarette smoke 5 weeks, single 100 ug dose i.p., 18 hours
Procedure: Mice were exposed to cigarette smoke for 5 weeks before a single 100 ug dose of Compound 014 was administered by i.p. injection. The mice were euthanized 18 hours later, and lungs were lavaged with saline, harvested, and then homogenized. Lavage protein, cell counts and cytokine secretion were measured. (n=3 mice/group, *P<0.05 versus control)

[7] = system: IMQ induced psoriasis; experiment: IMQ induced psoriasis model (Example 7); format: in vivo, BALB/c mice
Description: An objective scoring system was developed based on the clinical Psoriasis Area and Severity Index (PASI), except that for the mouse model the affected skin area is not taken into account in the overall score. Erythema and scaling were scored independently on a scale from 0 to 4: 0, none; 1, slight; 2, moderate; 3, marked; 4, very marked. The level of erythema was scored using a scoring table with red taints. At day 7, mice were euthanized and spleens were removed for weight measuring.
Female BALB/c mice at 8 to 11 wk of age received a daily topical dose of 62.5 mg of commercially available IMQ cream (5%) (Aldara; 3M Pharmaceuticals) on the shaved back and the right ear for 5 or 6 consecutive days, translating in a daily dose of 3.125 mg of the active compound. Control mice were treated similarly with a control vehicle cream (Vaseline Lanette cream; Fagron). BC-1261 (also referred to herein as compound 014) were either given in drinking water or applied topically daily. To score the severity of inflammation of the back skin, an objective scoring system was developed based on the clinical Psoriasis Area and Severity Index (PASI), except that for the mouse model the affected skin area is not taken into account in the overall score. Erythema and scaling were scored independently on a scale from 0 to 4: 0, none; 1, slight; 2, moderate; 3, marked; 4, very marked. The level of erythema was scored using a scoring table with red taints. At day 7, mice were euthanized and spleens were removed for weight measuring. Skin and ear sample were also collected for H&E staining and epidermis thickness were measured and graphed. n=5-10 per group, *p<0.05.

[8] = system: Dexamethasone-induced muscle atrophy; experiment: Dexamethasone induced muscle myopathy model (Example 8); format: in vivo, C57BL mice
Procedure: C57BL mice were given daily i.p. injection of 0.1 ml of vehicle or Dexamethasone (10 mg/kg/d) for 14 days. Some mice were also given BC-1261 (also referred to herein as compound 014) in drinking water with estimated dose of 0.5, 2 and 5 mg/kg/d. Mice were then sacrificed and (tibialis anterior)TA muscle were removed, photographed (A), weighted (C), processed for H&E staining (B) and protein immunoblotting (E).

[9] = system: lung transplant rejection; experiment: Lung transplant acute rejection model (Example 9); format: in vivo, mouse; settings: 5 mg/kg/d i.p. 2 days then drinking water 5 mg/kg/d 5 days
Procedure: Left lung from BALB/C mouse was surgically removed and transplanted into C57/BL mouse. Mice were given vehicle or BC-1261 (5 mg/kg/d i.p. injection) for 2 days until fully recovered. After that, BC-1261 (also referred to herein as compound 014) was administered through drinking water (5 mg/kg/d) for additional 5 days. Mice were then sacrificed, and the transplanted lungs were removed for H&E staining.

[10] = U937 monocytes, 16 hours, Trypan blue dead cells, read-out: LC50
[11] = therapeutic index (TI)=LC50/IC50
[12] = PA103, vs vehicle control infected mice, FIG. 9
[13] = Dexamethasone 10 mg/kg/d i.p. 14 days

c1ccc(-c2ccc(CNCCCCNCc3ccc(-c4ccccn4)cc3)cc2)nc1 [Compound 010]
IC50 [1]: 1.5 µg/mL (≈ 3.55 µM) | CC50 at 16 h [2, 10]: 22 µg/mL (≈ 52.1 µM) | TI [3, 11]: 14.7 | IC50 [4]: 1.5 µg/mL (≈ 3.55 µM)

c1cc(N2CCCC2)ccc1CNCCCNCc1ccc(N2CCCC2)cc1 [Compound 007]
IC50 [1]: 1.1 µg/mL (≈ 2.8 µM) | CC50 at 16 h [2, 10]: 3.2 µg/mL (≈ 8.15 µM) | TI [3, 11]: 2.9

c1coc(-c2ccc(CNCCNCc3ccc(-c4ccco4)cc3)cc2)c1 [Compound 013]
IC50 [1]: 1.9 µg/mL (≈ 5.1 µM) | CC50 at 16 h [2, 10]: 5.5 µg/mL (≈ 14.8 µM) | TI [3, 11]: 2.8

c1csc(-c2ccc(CNCCNCc3ccc(-c4cccs4)cc3)cc2)c1 [Compound 012]
IC50 [1]: 1.1 µg/mL (≈ 2.72 µM) | CC50 at 16 h [2, 10]: 1.8 µg/mL (≈ 4.45 µM) | TI [3, 11]: 1.6

c1ccc(-c2ccc(CNCCNCc3ccc(-c4ccccc4)cc3)cc2)cc1 [Compound 015]
IC50 [1]: 2 µg/mL (≈ 5.09 µM) | CC50 at 16 h [2, 10]: 2 µg/mL (≈ 5.09 µM) | TI [3, 11]: 1 | IC50 [4]: 2 µg/mL (≈ 5.09 µM)

c1cc(N2CCCCC2)ccc1CNCCNCc1ccc(N2CCCCC2)cc1 [Compound 004]
IC50 [1]: 0.8 µg/mL (≈ 1.97 µM) | CC50 at 16 h [2, 10]: 27 µg/mL (≈ 66.4 µM) | TI [3, 11]: 33 | IC50 [4]: 0.8 µg/mL (≈ 1.97 µM)

Cc1cc(N2CCCC2)ccc1CNCCCCNCc1ccc(N2CCCC2)cc1C [Compound 020]
IC50 [1]: 0.2 µg/mL (≈ 0.46 µM) | CC50 at 16 h [2, 10]: 2 µg/mL (≈ 4.6 µM) | TI [3, 11]: 10

Cc1cc(CNCCCCNCc2ccc(N3CCCC3)c(C)c2)ccc1N1CCCC1 [Compound 019]
IC50 [1]: 0.5 µg/mL (≈ 1.15 µM) | CC50 at 16 h [2, 10]: 1 µg/mL (≈ 2.3 µM) | TI [3, 11]: 2

c1ccc(CNCCNCc2ccccc2)cc1 [Benzathine, reference compound]
IC50 [1]: 25 µg/mL (≈ 104 µM) | CC50 at 16 h [2]: 400 µg/mL (≈ 1660 µM) | TI ([3]; human, 16 h): 16 | IC50 [4]: 25 µg/mL (≈ 104 µM)

Fc1cc(CNCCCCNCc2ccc(N3CCCC3)c(F)c2)ccc1N1CCCC1 [Compound 018]
IC50 [1]: 0.1 µg/mL (≈ 0.226 µM) | CC50 at 16 h [2, 10]: 0.4 µg/mL (≈ 0.904 µM) | TI [3, 11]: 4

c1ccc(-c2ccc(CNCCNCc3ccc(-c4ccccn4)cc3)cc2)nc1 [Compound 005]
IC50 [1]: 0.9 µg/mL (≈ 2.28 µM) | TI [3, 11]: 96 | IC50 [4]: 0.9 µg/mL (≈ 2.28 µM)

c1cnn(-c2ccc(CNCCNCc3ccc(-n4cccn4)cc3)cc2)c1 [Compound 009]
IC50 [1]: 1.4 µg/mL (≈ 3.76 µM) | CC50 at 16 h [2, 10]: 80 µg/mL (≈ 215 µM) | TI [3, 11]: 57

c1cc(N2CCOCC2)ccc1CNCCNCc1ccc(N2CCOCC2)cc1 [Compound 001]
IC50 [1]: 20 µg/mL (≈ 48.7 µM) | CC50 at 16 h [2, 10]: 260 µg/mL (≈ 633 µM) | TI [3, 11]: 13

c1cnc(-c2ccc(CNCCNCc3ccc(-c4ncccn4)cc3)cc2)nc1 [Compound 014]
IC50 [1]: 0.4 µg/mL (≈ 1.01 µM) | CC50 at 16 h [2, 10]: 410 µg/mL (≈ 1030 µM) | TI [3, 11]: 1025 | IC50 [4]: 0.4 µg/mL (≈ 1.01 µM) | adverse effects of Pseudomonas on lung mechanics ([5]; PA103 2.5×10^4 CFU/mouse i.t., 18 hours): significantly ameliorated | lavage cell counts [5, 12]: reduced | lavage protein concentration [5, 12]: reduced | lavage pro-inflammatory cytokine levels ([5]; PA103, vs vehicle control infected mice, FIG. 9C): reduction | cell infiltrates (H&E staining) ([5]; PA103, vs vehicle control mice, FIG. 11): significantly reduced | neutrophils in May-Grunwald and Geimsa smears ([5]; PA103, vs vehicle control smears, FIG. 10): significantly fewer neutrophils | lavage cell counts ([6]; FIG. 12): reduced | lavage protein concentration ([6]; FIG. 12): reduced | lavage pro-inflammatory cytokine levels ([6]; FIG. 12C): reduction | ear thickness ([7]; IMQ model): reduces | gross appearance ([7]; IMQ model): reduces | spleen weight ([7]; IMQ model, day 7): reduces | psoriasis index ([7]; IMQ model, score based on PASI): reduces | IMQ induced psoriasis ([7]; in drinking water or applied topically daily, BALB/C mice, FIGS. 13-17): effectively ameliorates | TRAF6 protein in TA muscle (immunoblotting) [8, 13]: degrading up-regulated TRAF6 protein | muscle wasting (cross sectional measurements, TA muscle H&E staining) [8, 13]: prevented | Dexamethasone-induced muscle atrophy ([8]; drinking water 0.5, 2 and 5 mg/kg/d, Dexamethasone 10 mg/kg/d i.p. 14 days): attenuates | dexamethasone-induced tibialis anterior muscle loss ([8]; even at 0.5 mg/kg/d in drinking water): significantly ameliorates | neutrophilia infiltrates induced by lung transplant rejection [9]: effectively ameliorates | transplanted lung H&E staining, infiltrates ([9]; vs vehicle group): completely protected lung

c1cnc(-c2ccc(CNCCCCNCc3ccc(-c4ncccn4)cc3)cc2)nc1 [Compound 016]
IC50 [1]: 4 µg/mL (≈ 9.42 µM) | CC50 at 16 h [2, 10]: > 100 µg/mL | TI [3, 11]: >25

c1ccc(CNCCNCc2ccc(-c3ccccn3)cc2)nc1 [Compound 008]
IC50 [1]: 1.5 µg/mL (≈ 4.71 µM) | CC50 at 16 h [2, 10]: 45 µg/mL (≈ 141 µM) | TI [3, 11]: 30

c1cc(N2CCCC2)ccc1CNCCNCc1ccc(N2CCCC2)cc1 [Compound 002]
IC50 [1]: 0.6 µg/mL (≈ 1.58 µM) | CC50 at 16 h [2, 10]: 7 µg/mL (≈ 18.5 µM) | TI [3, 11]: 11

c1cn(-c2ccc(CNCCNCc3ccc(-n4ccnc4)cc3)cc2)cn1 [Compound 003]
IC50 [1]: 0.7 µg/mL (≈ 1.88 µM) | CC50 at 16 h [2, 10]: 130 µg/mL (≈ 349 µM) | TI [3, 11]: 142

c1csc(-c2ccc(CNCCNCc3ccc(-c4nccs4)cc3)cc2)n1 [Compound 011]
IC50 [1]: 0.4 µg/mL (≈ 0.984 µM) | CC50 at 16 h [2, 10]: 8.5 µg/mL (≈ 20.9 µM) | TI [3, 11]: 21.3

c1cc(N2CCCC2)ccc1CNCCCCNCc1ccc(N2CCCC2)cc1 [Compound 006]
IC50 [1]: 1 µg/mL (≈ 2.46 µM) | CC50 at 16 h [2, 10]: 1 µg/mL (≈ 2.46 µM) | TI [3, 11]: 1

c1cc(N2CCCC2)ccc1CNCCCCCNCc1ccc(N2CCCC2)cc1 [Compound 017]
IC50 [1]: 0.2 µg/mL (≈ 0.475 µM) | CC50 at 16 h [2, 10]: 4 µg/mL (≈ 9.51 µM) | TI [3, 11]: 20
